Legend:
Assay in all cases: relative viability (nuclei count vs DMSO), 5 days (fraction); higher = more cells survive
[1] = compound: CN1CCC(CC1)OC2=CC(=C(C=C2)NC3=NC=C4C(=N3)N(C(=O)N4C)C5CCCC5)OC [AZ3146] + C[C@@H](Oc1cc(-c2cnn(C3CCNCC3)c2)cnc1N)c1c(Cl)ccc(F)c1Cl [Crizotinib] (partner 1 µM)
Summary of the method: (§1)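 Relative viability divides the nuclei count in treated wells by that in vehicle wells. Lung cancer cell lines were seeded in 1536-well plates, dosed by pin tool the next day, and fixed and stained after 5 days in one step with final 0.05% Triton X-100, 1% formaldehyde and 1 ug/ml Hoechst. Dosing was a single drug or a fixed anchor-drug dose plus five library-drug doses (not always all listed) in √10 steps, and values are medians of duplicate plates imaged at 4×.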

[2] = compound: CN1CCC(CC1)OC2=CC(=C(C=C2)NC3=NC=C4C(=N3)N(C(=O)N4C)C5CCCC5)OC [AZ3146] + O=C(c1cc(Cc2n[nH]c(=O)c3ccccc23)ccc1F)N1CCN(C(=O)C2CC2)CC1 [Olaparib] (partner 8 µM)
Summary of the method: as §1

[3] = compound: CN1CCC(CC1)OC2=CC(=C(C=C2)NC3=NC=C4C(=N3)N(C(=O)N4C)C5CCCC5)OC [AZ3146] + Nc1nc2[nH]cc(CCc3ccc(C(=O)N[C@@H](CCC(=O)O)C(=O)O)cc3)c2c(=O)[nH]1 [Pemetrexed] (partner 0.2 µM)
Summary of the method: as §1

[4] = compound: CCOC(=O)CCNc1cc(N2CCc3ccccc3CC2)nc(-c2ccccn2)n1 [GSK-J4] + C[C@]1(O)C[C@@H](c2nc(-c3ccc4ccc(-c5ccccc5)nc4c3)c3c(N)nccn32)C1 [Linsitinib] (partner 1 µM)
Summary of the method: as §1

NCI-H23 was tested, and the relative viability ([1]; first compound 0.08 µM) was 0.398, the relative viability ([1]; first compound 0.253 µM) was 0.515 and the relative viability ([1]; first compound 0.8 µM) was 0.516. It also gave a relative viability ([1]; first compound 2.53 µM) of 0.425, a relative viability ([1]; first compound 8 µM) of 0.305 and a relative viability ([2]; first compound 0.08 µM) of 0.291. It also gave a relative viability ([2]; first compound 0.253 µM) of 0.289, a relative viability ([2]; first compound 0.8 µM) of 0.389 and a relative viability ([2]; first compound 2.53 µM) of 0.356. It also gave a relative viability ([2]; first compound 8 µM) of 0.338, a relative viability ([3]; first compound 0.08 µM) of 0.789 and a relative viability ([3]; first compound 0.253 µM) of 0.645. The relative viability ([3]; first compound 0.8 µM) was 0.857, the relative viability ([3]; first compound 2.53 µM) was 0.787 and the relative viability ([3]; first compound 8 µM) was 0.45. The relative viability ([4]; first compound 0.5 µM) was 0.557, the relative viability ([4]; first compound 5 µM) was 0.694 and the relative viability ([4]; first compound 15.81 µM) was 0.54. For the same cell line, the relative viability ([4]; first compound 50 µM) was 0.594.

Cell Line EPLC-272H has a relative viability ([1]; first compound 0.08 µM) of 0.78, a relative viability ([1]; first compound 0.253 µM) of 0.843 and a relative viability ([1]; first compound 0.8 µM) of 1.02. It also gave a relative viability ([1]; first compound 2.53 µM) of 1.14, a relative viability ([1]; first compound 8 µM) of 0.975 and a relative viability ([2]; first compound 0.08 µM) of 0.892. For the same cell line, the relative viability ([2]; first compound 0.253 µM) was 0.841, the relative viability ([2]; first compound 0.8 µM) was 0.878 and the relative viability ([2]; first compound 2.53 µM) was 0.914. The relative viability ([2]; first compound 8 µM) was 0.643, the relative viability ([3]; first compound 0.08 µM) was 0.366 and the relative viability ([3]; first compound 0.253 µM) was 0.369. For the same cell line, the relative viability ([3]; first compound 0.8 µM) was 0.37, the relative viability ([3]; first compound 2.53 µM) was 0.341 and the relative viability ([3]; first compound 8 µM) was 0.396. The relative viability ([4]; first compound 0.5 µM) was 1.16, the relative viability ([4]; first compound 5 µM) was 1.31 and the relative viability ([4]; first compound 15.81 µM) was 1.02. For the same cell line, the relative viability ([4]; first compound 50 µM) was 1.11.

Cell Line NCI-H2023 has a relative viability ([1]; first compound 0.08 µM) of 0.592, a relative viability ([1]; first compound 0.253 µM) of 0.636 and a relative viability ([1]; first compound 0.8 µM) of 0.485. For the same cell line, the relative viability ([1]; first compound 2.53 µM) was 0.407, the relative viability ([1]; first compound 8 µM) was 0.449 and the relative viability ([2]; first compound 0.08 µM) was 0.464. The relative viability ([2]; first compound 0.253 µM) was 0.451, the relative viability ([2]; first compound 0.8 µM) was 0.494 and the relative viability ([2]; first compound 2.53 µM) was 0.436. It also gave a relative viability ([2]; first compound 8 µM) of 0.152, a relative viability ([3]; first compound 0.08 µM) of 0.207 and a relative viability ([3]; first compound 0.253 µM) of 0.238. For the same cell line, the relative viability ([3]; first compound 0.8 µM) was 0.226, the relative viability ([3]; first compound 2.53 µM) was 0.216 and the relative viability ([3]; first compound 8 µM) was 0.129. The relative viability ([4]; first compound 0.5 µM) was 0.658, the relative viability ([4]; first compound 1.581 µM) was 0.675 and the relative viability ([4]; first compound 5 µM) was 0.815. The relative viability ([4]; first compound 15.81 µM) was 0.582 and the relative viability ([4]; first compound 50 µM) was 0.674.

With NCI-H647 the relative viability ([1]; first compound 0.08 µM) was 0.983, the relative viability ([1]; first compound 0.253 µM) was 1.12 and the relative viability ([1]; first compound 0.8 µM) was 0.978. The relative viability ([1]; first compound 2.53 µM) was 0.763, the relative viability ([1]; first compound 8 µM) was 0.201 and the relative viability ([2]; first compound 0.08 µM) was 0.412. The relative viability ([2]; first compound 0.253 µM) was 0.474, the relative viability ([2]; first compound 0.8 µM) was 0.592 and the relative viability ([2]; first compound 2.53 µM) was 0.603. The relative viability ([2]; first compound 8 µM) was 0.237, the relative viability ([3]; first compound 0.08 µM) was 0.22 and the relative viability ([3]; first compound 0.253 µM) was 0.178. The relative viability ([3]; first compound 0.8 µM) was 0.188, the relative viability ([3]; first compound 2.53 µM) was 0.204 and the relative viability ([3]; first compound 8 µM) was 0.115. For the same cell line, the relative viability ([4]; first compound 0.5 µM) was 0.964, the relative viability ([4]; first compound 1.581 µM) was 0.993 and the relative viability ([4]; first compound 5 µM) was 1.03. It also gave a relative viability ([4]; first compound 15.81 µM) of 1.2 and a relative viability ([4]; first compound 50 µM) of 0.79.

NCI-H661 was tested, and the relative viability ([1]; first compound 0.08 µM) was 0.979, the relative viability ([1]; first compound 0.253 µM) was 1.14 and the relative viability ([1]; first compound 0.8 µM) was 1.03. For the same cell line, the relative viability ([1]; first compound 2.53 µM) was 1.11, the relative viability ([1]; first compound 8 µM) was 0.814 and the relative viability ([2]; first compound 0.08 µM) was 0.806. It also gave a relative viability ([2]; first compound 0.253 µM) of 0.768, a relative viability ([2]; first compound 0.8 µM) of 0.736 and a relative viability ([2]; first compound 2.53 µM) of 0.791. It also gave a relative viability ([2]; first compound 8 µM) of 0.678, a relative viability ([3]; first compound 0.08 µM) of 0.939 and a relative viability ([3]; first compound 0.253 µM) of 0.894. For the same cell line, the relative viability ([3]; first compound 0.8 µM) was 0.956, the relative viability ([3]; first compound 2.53 µM) was 0.92 and the relative viability ([3]; first compound 8 µM) was 0.818. It also gave a relative viability ([4]; first compound 0.5 µM) of 0.549, a relative viability ([4]; first compound 1.581 µM) of 0.565 and a relative viability ([4]; first compound 5 µM) of 0.608. For the same cell line, the relative viability ([4]; first compound 15.81 µM) was 0.425 and the relative viability ([4]; first compound 50 µM) was 0.36.

NCI-H1975 gave a relative viability ([1]; first compound 0.08 µM) of 0.862, a relative viability ([1]; first compound 0.253 µM) of 1.07 and a relative viability ([1]; first compound 0.8 µM) of 0.834. For the same cell line, the relative viability ([1]; first compound 2.53 µM) was 0.406, the relative viability ([1]; first compound 8 µM) was 0.299 and the relative viability ([2]; first compound 0.08 µM) was 0.748. The relative viability ([2]; first compound 0.253 µM) was 0.774, the relative viability ([2]; first compound 0.8 µM) was 0.813 and the relative viability ([2]; first compound 2.53 µM) was 0.793. It also gave a relative viability ([2]; first compound 8 µM) of 0.418, a relative viability ([3]; first compound 0.08 µM) of 0.312 and a relative viability ([3]; first compound 0.253 µM) of 0.311. The relative viability ([3]; first compound 0.8 µM) was 0.294, the relative viability ([3]; first compound 2.53 µM) was 0.295 and the relative viability ([3]; first compound 8 µM) was 0.244. The relative viability ([4]; first compound 0.5 µM) was 0.871, the relative viability ([4]; first compound 1.581 µM) was 0.934 and the relative viability ([4]; first compound 15.81 µM) was 0.982. For the same cell line, the relative viability ([4]; first compound 50 µM) was 1.17.

For BEN, the relative viability ([1]; first compound 0.253 µM) was 0.869, the relative viability ([1]; first compound 0.8 µM) was 0.97 and the relative viability ([1]; first compound 2.53 µM) was 0.822. For the same cell line, the relative viability ([1]; first compound 8 µM) was 0.829, the relative viability ([2]; first compound 0.253 µM) was 1.07 and the relative viability ([2]; first compound 0.8 µM) was 1.12. The relative viability ([2]; first compound 2.53 µM) was 0.899, the relative viability ([2]; first compound 8 µM) was 0.917 and the relative viability ([3]; first compound 0.253 µM) was 0.641. It also gave a relative viability ([3]; first compound 0.8 µM) of 0.651, a relative viability ([3]; first compound 2.53 µM) of 0.75 and a relative viability ([3]; first compound 8 µM) of 0.8. It also gave a relative viability ([4]; first compound 0.5 µM) of 0.91, a relative viability ([4]; first compound 1.581 µM) of 0.706 and a relative viability ([4]; first compound 15.81 µM) of 0.925. For the same cell line, the relative viability ([4]; first compound 50 µM) was 0.823.

NCI-H1437 was tested, and the relative viability ([1]; first compound 0.08 µM) was 0.875, the relative viability ([1]; first compound 0.253 µM) was 0.906 and the relative viability ([1]; first compound 0.8 µM) was 0.853. For the same cell line, the relative viability ([1]; first compound 2.53 µM) was 1.02, the relative viability ([1]; first compound 8 µM) was 0.863 and the relative viability ([2]; first compound 0.08 µM) was 0.589. The relative viability ([2]; first compound 0.253 µM) was 0.611, the relative viability ([2]; first compound 0.8 µM) was 0.611 and the relative viability ([2]; first compound 2.53 µM) was 0.635. The relative viability ([2]; first compound 8 µM) was 0.532, the relative viability ([3]; first compound 0.08 µM) was 0.283 and the relative viability ([3]; first compound 0.253 µM) was 0.327. For the same cell line, the relative viability ([3]; first compound 0.8 µM) was 0.3, the relative viability ([3]; first compound 2.53 µM) was 0.346 and the relative viability ([3]; first compound 8 µM) was 0.294. For the same cell line, the relative viability ([4]; first compound 0.5 µM) was 0.928, the relative viability ([4]; first compound 1.581 µM) was 0.993 and the relative viability ([4]; first compound 5 µM) was 0.988. For the same cell line, the relative viability ([4]; first compound 15.81 µM) was 0.881 and the relative viability ([4]; first compound 50 µM) was 0.222.

Reference: the supplement of paper PMC10307832
